Counter-ions that a name gives are not always drawn.
What follows are compounds tested on Acinetobacter baumannii ATCC 17978 (assay: Antimicrobial susceptibility testing: 90% growth inhibitory concentration (IC90) determination). Conditions: 90% growth inhibitory concentration; Acinetobacter baumannii ATCC17978; Iso-Sensitest broth, OD 600 nm over 16h; read-out: ATCC17978 IC90.
Format: cell-based
Summary of the method: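 Compounds serially twofold diluted (e.g. 50 to 0.097 μM final) in Iso-Sensitest broth, inoculated at ~5×10^(5) CFU/ml, incubated at 35±2° C. OD600 read every 20 minutes over 16h. IC90 taken as concentration inhibiting 90% of growth during logarithmic phase.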

Compound | IC90
COc1ccc(-c2cnc3c(Nc4ccc(C(=O)N(C)CC5CNC5)c(C)c4)nccn23)cc1F [Example 384, N-(azetidin-3-ylmethyl)-4-[[3-(3-fluoro-4-methoxyphenyl)imidazo[1,2-a]pyrazin-8-yl]amino]-N,2-dimethylbenzamide] | 880 nM

Same assay, conditions: Acinetobacter baumannii, ATCC17978, 16 h, 90% growth inhibitory concentration; Acinetobacter baumannii ATCC17978; Iso-Sensitest broth, OD 600 nm over 16h; read-out: ATCC17978 IC90

IC90 | Compound
160 nM | Cc1cc(Nc2nccn3c(-c4ccc(OC(F)F)cc4)cnc23)ccc1C(=O)NCCCCCN1CCOCC1 [Example 25, 4-((3-(4-(difluoromethoxy)phenyl)imidazo[1,2-a]pyrazin-8-yl)amino)-2-methyl-N-(5-morpholinopentyl) benzamide]
280 nM | Cc1cc(Nc2nccn3c(-c4ccc(Cl)cc4)cnc23)ccc1C(=O)NCCC1CCNCC1 [Example 189, 4-[[3-(4-chlorophenyl)imidazo[1,2-a]pyrazin-8-yl]amino]-2-methyl-N-(2-piperidin-4-ylethyl)benzamide;hydrochlo-ride]
400 nM | Cc1cc(Nc2nccn3c(-c4ccc(OC(F)F)cc4)cnc23)ccc1C(=O)NCCCCN1CCOCC1 [Example 197, 4-[[3-[4-(difluoromethoxy)phenyl]im-idazo[1,2-a]pyrazin-8-yl]amino]-2-methyl-N-(4-morpholin-4-ylbutyl)benzamide]
1200 nM | CCc1cc(Nc2nccn3c(-c4ccc(Cl)c(F)c4F)cnc23)ccc1C(=O)NCCCN [Example 229, N-(3-aminopropyl)-4-[[3-(4-chloro-2,3-difluorophenyl)imidazo[1,2-a]pyrazin-8-yl]amino]-2-ethylbenzamide;hydrochloride]
1200 nM | Cc1cc(Nc2nccn3c(-c4ccc(OCC#CCN)c(F)c4)cnc23)ccc1C(=O)N(C)C [Example 313, 4-[[3-[4-(4-aminobut-2-ynoxy)-3-fluorophenyl]imidazo[1,2-a]pyrazin-8-yl]amino]-N,N,2-trimethylbenzamide]
250 nM | Cc1cc(Nc2nccn3c(-c4ccc(OC(F)F)cc4)cnc23)ccc1C(=O)NCCCCNC(=N)N [Example 83, 4-((3-(4-(difluoromethoxy)phenyl)imidazo[1,2-a]pyrazin-8-yl)amino)-N-(4-guanidinobutyl)-2-methylbenzamide]
2100 nM | COc1ccc(-c2cnc3c(Nc4ccc(C(=O)NCCO)cc4)nccn23)cc1Cl [Example 243, 4-[[3-(3-chloro-4-methoxyphenyl)imidazo[1,2-a]pyrazin-8-yl]amino]-N-(2-hydroxyethyl)benzamide]
530 nM | COc1ccc(-c2cnc3c(Nc4ccc(C(=O)N(C)CC5CCNCC5)c(Cl)c4)nccn23)cc1F [Example 205, 2-chloro-4-[[3-(3-fluoro-4-methoxyphenyl)imidazo[1,2-a]pyrazin-8-yl]amino]-N-methyl-N-(piperidin-4-ylmethyl)benzamide;hydrochlo-ride]
650 nM | COc1ccc(-c2cnc3c(Nc4ccc(C(=O)NCC(=O)N5CCC(O)CC5)c(C)c4)nccn23)cc1 [Example 20, N-(2-(4-hydroxypiperidin-1-yl)-2-oxoethyl)-4-((3-(4-methoxyphenyl)imidazo [1,2-a]pyrazin-8-yl)amino)-2-methylbenzamide]
270 nM | COc1ccc(-c2cnc3c(Nc4ccc(C(=O)NCC5CCN(C(=N)N)CC5)c(C)c4)nccn23)cc1Cl [Example 82, N-((1-carbamimidoyl-piperidin-4-yl)methyl)-4-((3-(3-chloro-4-methoxyphenyl)imidazo [1,2-a]pyrazin-8-yl)amino)-2-methylbenzamide]
270 nM | COc1ccc(-c2cnc3c(Nc4ccc(C(=O)NCCCCN5CCOCC5)c(C)c4)nccn23)cc1F [Example 187, 4-[[3-(3-fluoro-4-methoxyphenyl)imidazo[1,2-a]pyrazin-8-yl]amino]-2-methyl-N-(4-morpholin-4-ylbutyl)benzamide]
460 nM | CN(CCN1CCNCC1)C(=O)c1ccc(Nc2nccn3c(-c4ccc(OC(F)F)cc4)cnc23)cc1Cl [Example 203, 2-chloro-4-[[3-[4-(difluoromethoxy)phenyl]im-idazo[1,2-a]pyrazin-8-yl]amino]-N-methyl-N-(2-piperazin-1-ylethyl)benzamide; hydrochlo-ride]

Second part, the compound before the results:

Compound | IC90
CCc1cc(Nc2nccn3c(-c4ccc(Oc5cc(OC)ncn5)c(F)c4F)cnc23)ccc1C(=O)N[C@@H](C)CN [Example 463, (S)-N-(1-aminopropan-2-yl)-4-((3-(2,3-difluoro-4-((6-methoxypyrimidin-4-yl)oxy)phenyl)imidazo[1,2-a]pyrazin-8-yl)amino)-2-ethylbenzamide] | 840 nM
CCc1cc(Nc2nccn3c(-c4ccc(OC)c(F)c4F)cnc23)ccc1C(=O)NCCCn1ccnc1 [Example 290, 4-[[3-(2,3-difluoro-4-methoxyphenyl)imidazo[1,2-a]pyrazin-8-yl]amino]-2-ethyl-N-(3-imidazol-1-ylpropyl)benzamide] | 50 nM
CN(CCN1CCNCC1)C(=O)c1ccc(Nc2nccn3c(-c4ccc(OCC#N)c(F)c4F)cnc23)cc1Cl [Example 74, 2-chloro-4-((3-(4-(cyanomethoxy)-2,3-difluorophenyl)imidazo [1,2-a]pyrazin-8-yl)amino)-N-methyl-N-(2-(piperazin-1-yl)ethyl)benzamide] | 60 nM
CN(CCCn1c(=O)c(=O)[nH]n(C)c1=S)C(=O)c1ccc(Nc2nccn3c(-c4ccc(OCC#N)c(F)c4F)cnc23)cc1Cl [Example 396, 2-chloro-4-((3-(4-(cyanomethoxy)-2,3-difluorophenyl)imidazo[1,2-a]pyrazin-8-yl)amino)-N-methyl-N-(3-(2-methyl-5,6-dioxo-3-thioxo-1,2,4-triazinan-4-yl)propyl)benzamide] | 570 nM
COc1ccc(-c2cnc3c(Nc4ccc(C(=O)N(C)CC(=O)N5CCNC(C(=O)O)C5)c(C)c4)nccn23)cc1F (stereo not shown) [Example 173, 4-[2-[[4-[[3-(3-fluoro-4-methoxyphenyl)imidazo[1,2-a]pyrazin-8-yl]amino]-2-methylbenzoyl]-methylamino]acetyl]piperazine-2-carboxylic acid;hydrochloride] | 8600 nM
CCc1cc(Nc2nccn3c(-c4ccc(OC)c(F)c4F)cnc23)ccc1C(=O)NCC(O)CNC(=O)[C@@H](N)CCCCN (mixture of isomers) [Example 412, rac-N-(3-((R)-2,6-diaminohexanamido)-2-hydroxypropyl)-4-((3-(2,3-difluoro-4-methoxyphenyl)imidazo[1,2-a]pyrazin-8-yl)amino)-2-ethylbenzamide dihydrochloride] | 770 nM
CCc1cc(Nc2nccn3c(-c4ccc(Oc5ccccn5)c(F)c4F)cnc23)ccc1C(=O)NCCNC(=O)[C@@H](N)CCCNC(=N)N [Example 417, N-[2-[[(2S)-2-amino-5-guanidino-pentanoyl]amino]ethyl]-4-[[3-[2,3-difluoro-4-(2-pyridyloxy)phenyl]imidazo [1,2-a]pyrazin-8-yl]amino]-2-ethyl-benzamide; formic acid] | 850 nM
CCc1cc(Nc2nccn3c(-c4ccc(OC(F)F)c(F)c4F)cnc23)ccc1C(=O)NCCNC(=O)[C@@H](N)CCCNC(=N)N [Example 333, N-[2-[[(2S)-2-amino-5-carbamimidamidopentanoyl]amino]ethyl]-4-[[3-[4-(difluoromethoxy)-2,3-difluorophenyl]imidazo[1,2-a]pyrazin-8-yl]amino]-2-ethylbenzamide;formic acid] | 340 nM
CCc1cc(Nc2nccn3c(-c4ccc(OC)c(F)c4F)cnc23)ccc1C(=O)NCCCC[C@H](N)C(=O)O [Example 344, (2S)-2-amino-6-[[4-[[3-(2,3-difluoro-4-methoxyphenyl)imidazo[1,2-a]pyrazin-8-yl]amino]-2-ethylbenzoyl]amino]hexanoic acid;2,2,2-trifluoroacetic acid] | 800 nM
COc1ccc(-c2cnc3c(Nc4ccc(C(=O)NCCNC(=O)[C@@H]5C[C@@H](O)CN5)c(C)c4)nccn23)c(F)c1F [Example 363, (2S,4R)-N-[2-[[4-[[3-(2,3-difluoro-4-methoxyphenyl)imidazo[1,2-a]pyrazin-8-yl]amino]-2-methylbenzoyl]amino]ethyl]-4-hydroxypyrrolidine-2-carboxamide] | 90 nM
COc1ccc(-c2cnc3c(Nc4cc(F)c(C(=O)NCCCN)c(Cl)c4)nccn23)c(F)c1F [Example 436, N-(3-aminopropyl)-2-chloro-4-((3-(2,3-difluoro-4-methoxyphenyl)imidazo[1,2-a]pyrazin-8-yl)amino)-6-fluorobenzamide] | 650 nM
CCc1cc(Nc2nccn3c(-c4ccc(OCC#N)c(F)c4F)cnc23)ccc1C(=O)NCCNC(=O)CN [Example 136, N-[2-[(2-aminoacetyl)amino]ethyl]-4-[[3-[4-(cyanomethoxy)-2,3-difluoro-phenyl]imidazo[1,2-a]pyrazin-8-yl]amino]-2-ethyl-benzamide formate] | 60 nM
CCc1cc(Nc2nccn3c(-c4ccc(Oc5nccc(C)n5)c(F)c4F)cnc23)ccc1C(=O)NCCNC(=O)[C@@H](N)CCNC(=N)N [Example 445, (S)-N-(2-(2-amino-4-guanidinobutanamido)ethyl)-4-((3-(2,3-difluoro-4-((4-methylpyrimidin-2-yl)oxy)phenyl)imidazo[1,2-a]pyrazin-8-yl)amino)-2-ethylbenzamide formiate 1:2] | 380 nM
CCc1cc(Nc2nccn3c(-c4ccc(OC)c(F)c4F)cnc23)ccc1C(=O)NCCNC(=O)CCCCNC(=N)N [Example 139, 4-[[3-(2,3-difluoro-4-methoxy-phenyl)imidazo[1,2-a]pyrazin-8-yl]amino]-2-ethyl-N-[2-(5-guanidino-pentanoylamino)ethyl]benzamide formate] | 60 nM
CCc1cc(Nc2nccn3c(-c4ccc(Oc5ccc(F)cn5)c(F)c4F)cnc23)ccc1C(=O)NCCNC(=O)[C@H](N)CCCNC(=N)N [Example 424, N-[2-[[(2R)-2-amino-5-guanidino-pentanoyl]amino]ethyl]-4-[[3-[2,3-difluoro-4-[(5-fluoro-2-pyridyl)oxy]phenyl]imidazo [1,2-a]pyrazin-8-yl]amino]-2-ethyl-benzamide; formic acid] | 900 nM

— US20230012368A1 (Hoffmann-La Roche Inc., priority 2018, published 2023)
